Measured values as given in US20260373119A1, “NOVEL COMPOUND, AND COMPOSITION FOR PREVENTING OR TREATING HER2-POSITIVE CANCER, COMPRISING SAME” (EWHA UNIVERSITY - INDUSTRY COLLABORATION FOUNDATION, priority 2022, published 2026).

Legend:
[1] = system: NCI-N87 (HER2-positive gastric cancer cell line); assay: antiproliferative effect, NCI-N87; type: cell-based; settings: 72 hours
[2] = JIMT-1 xenograft, body weight; type: in vivo, mice; settings: 4 mg/kg
Description: Xenograft mice were generated to evaluate the anticancer effects of the candidate compound. […] When the tumors reached a volume of 90-100 mm^3, the mice were randomized into designated groups. […] For the JIMT-1 xenograft, intraperitoneal administration was performed eight times at 3-day intervals. […] Tumor size changes were monitored until the mean tumor size in the control group reached 2,000-2,500 mm^3. On day 28 for the NCI-N87 xenograft and day 46 for the JIMT-1 xenograft, the mice were sacrificed, and tumors were excised to determine relative tumor sizes. Tumor length (L) and width (W) were measured with calipers, and tumor volume was calculated using the formula:
To assess resistance-avoidance effects in vivo, JIMT-1 xenograft mice were treated with 4 mg/kg of the candidate compound or TZMB.

[3] = system: TZMB-resistant cells; assay: clonal analysis; type: cell-based; settings: 14 days; TZMB 10 or 20 μg/mL, YK1 0.5 or 1 μM
Description: To validate the above results, clonal analysis was performed. […] The incubated cells were fixed with 100% methanol for 1 hour and then stained with 200 μL of crystal violet solution per well. After washing the cells with tap water, images were captured using a ChemiDoc bio-image analyzer (Bio-Rad), and quantification was performed with ImageJ software (NIH, Bethesda, MD, USA). All processes following the fixation were conducted at room temperature.

[4] = system: HER2 and downstream signaling (phosphorylated AKT and MAPK); assay: HER2 expression and downstream signaling, TZMB-sensitive and -resistant cells; type: cell-based
Description: For western blot analysis, cells were seeded in a 6-well plate and lysed in 1×RIPA lysis buffer (Cell Signaling, USA) containing 1% 0.1 M [COMPOUND LEFT OUT] and 1% 100× protease inhibitor cocktail solution (Genedepot, USA). Total protein levels were standardized using the Pierce™ BCA Protein Assay Kit (Thermo Fisher Scientific, USA) and a microplate reader (Tecan Group Ltd., Switzerland). A total of 20 μg of protein was loaded onto a 10-15% SDS-PAGE acrylamide gel and transferred to a 0.2 μm PVDF membrane (Pall Life Science, USA). The membrane was blocked with 5% skim milk or 5% BSA, and the membrane was cultured with primary antibodies (purchased from Thermo Fisher, Cell Signaling, Santa Cruz, Novus, or MBL) at room temperature for 3 hours or overnight at 4 °C. The blot was washed three times with Tris-buffered saline containing 0.1% Tween20 (1×TBST) and incubated with an HRP-conjugated secondary antibody (GeneTex, USA). Protein bands were detected using ECL solution reagents (GE Healthcare, USA) and the LAS-3000 imaging system (Fuji Photo Film Co., Ltd., Japan), and captured images were analyzed using Multi-Gauge software (Fuji Photo Film Co. Ltd.). The preparation of cell lysates for subsequent analyses was performed using the same method as described for western blot analysis.
The ability of the candidate compound to overcome trastuzumab resistance was evaluated.

[5] = system: NCI-N87 xenograft; assay: NCI-N87 xenograft, tumor growth; type: in vivo, mice; settings: 4 mg/kg, intravenous, six times at 3-day intervals
Description: (§1) Xenograft mice were generated to evaluate the anticancer effects of the candidate compound. NCI-N87 and JIMT-1 cells (5×10^6 cells), dissolved in 100 μL of 1× phosphate-buffered saline (PBS), were subcutaneously injected into the right flanks of 5-week-old female athymic nude mice (Envigo, USA) or 4-week-old female NOD-SCID mice (Koatech, South Korea). When the tumors reached a volume of 90-100 mm^3, the mice were randomized into designated groups. For the NCI-N87 xenograft, intravenous administration was performed six times at 3-day intervals. For the JIMT-1 xenograft, intraperitoneal administration was performed eight times at 3-day intervals. […] Tumor size changes were monitored until the mean tumor size in the control group reached 2,000-2,500 mm^3. On day 28 for the NCI-N87 xenograft and day 46 for the JIMT-1 xenograft, the mice were sacrificed, and tumors were excised to determine relative tumor sizes. Tumor length (L) and width (W) were measured with calipers, and tumor volume was calculated using the formula: […]

[6] = system: JIMT-1 xenograft; assay: JIMT-1 xenograft, tumor growth; type: in vivo, mice; settings: 4 mg/kg, intraperitoneal, eight times at 3-day intervals
Description: as §1

[7] = target: T1, (His)6-MED23391-582 / FITC-ELF3129-145 peptide (Homo sapiens, UniProt Q9ULK4); assay: fluorescence polarization displacement assay; type: binding
T1 construct: 391-582 and fluorescein isothiocyanate (FITC)-labeled
T1 sequence (Q9ULK4 391-582 limits assumed): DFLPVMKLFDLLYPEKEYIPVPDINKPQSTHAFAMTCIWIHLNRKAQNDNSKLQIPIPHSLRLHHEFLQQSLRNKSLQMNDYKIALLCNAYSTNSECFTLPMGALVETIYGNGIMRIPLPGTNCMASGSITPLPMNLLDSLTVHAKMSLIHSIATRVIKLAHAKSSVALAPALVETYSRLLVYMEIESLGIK
Description: The samples, adjusted to a final volume of 50 μL, were incubated at room temperature for 30 minutes. Kd values were calculated using a least-squares non-linear fit method with Prism 6.0 software (GraphPad Software, USA). FP signals were measured in millipolarization (mP) units using an Infinite F200 PRO microplate reader (Tecan Group Ltd., Switzerland) at an excitation wavelength of 485 nm and an emission wavelength of 535 nm. For displacement analysis, graded concentrations of YK1 and unlabeled ELF3137-144 peptides were mixed with 80 nM (His) 6-MED23391-582 and 10 nM FITC-ELF3129-145.
The effect of compound YK1 was confirmed by measuring the reduction in FP signals, using unlabeled peptides as a positive control. The IC50 of each compound was determined by fitting the data to a four-parameter logistic equation using the Table Curve 2D program (SPSS Inc.). The Ki value was calculated using the Cheng-Prusoff equation (Ki=IC50/1+([Ligand]/Kd))

[8] = system: Ki-67; assay: IHC of NCI-N87 xenograft tumors, Ki-67; type: in vivo, mice; settings: vs control group
Description: as §1
(§2) For immunohistochemistry (IHC) analysis, tumors from the xenograft models were prepared as paraffin-embedded sections. […] The control group was counterstained with hematoxylin, and the IHC staining was evaluated under an optical microscope at 200× magnification.

[9] = target: T2, MED23-IRF7 PPI (Homo sapiens, UniProt Q9ULK4); assay: immunoprecipitation, MED23-IRF7 PPI; type: cell-based
T2 construct: co-immunoprecipitation of IRF7, probably endogenous
T2 sequence (Q9ULK4 whole entry): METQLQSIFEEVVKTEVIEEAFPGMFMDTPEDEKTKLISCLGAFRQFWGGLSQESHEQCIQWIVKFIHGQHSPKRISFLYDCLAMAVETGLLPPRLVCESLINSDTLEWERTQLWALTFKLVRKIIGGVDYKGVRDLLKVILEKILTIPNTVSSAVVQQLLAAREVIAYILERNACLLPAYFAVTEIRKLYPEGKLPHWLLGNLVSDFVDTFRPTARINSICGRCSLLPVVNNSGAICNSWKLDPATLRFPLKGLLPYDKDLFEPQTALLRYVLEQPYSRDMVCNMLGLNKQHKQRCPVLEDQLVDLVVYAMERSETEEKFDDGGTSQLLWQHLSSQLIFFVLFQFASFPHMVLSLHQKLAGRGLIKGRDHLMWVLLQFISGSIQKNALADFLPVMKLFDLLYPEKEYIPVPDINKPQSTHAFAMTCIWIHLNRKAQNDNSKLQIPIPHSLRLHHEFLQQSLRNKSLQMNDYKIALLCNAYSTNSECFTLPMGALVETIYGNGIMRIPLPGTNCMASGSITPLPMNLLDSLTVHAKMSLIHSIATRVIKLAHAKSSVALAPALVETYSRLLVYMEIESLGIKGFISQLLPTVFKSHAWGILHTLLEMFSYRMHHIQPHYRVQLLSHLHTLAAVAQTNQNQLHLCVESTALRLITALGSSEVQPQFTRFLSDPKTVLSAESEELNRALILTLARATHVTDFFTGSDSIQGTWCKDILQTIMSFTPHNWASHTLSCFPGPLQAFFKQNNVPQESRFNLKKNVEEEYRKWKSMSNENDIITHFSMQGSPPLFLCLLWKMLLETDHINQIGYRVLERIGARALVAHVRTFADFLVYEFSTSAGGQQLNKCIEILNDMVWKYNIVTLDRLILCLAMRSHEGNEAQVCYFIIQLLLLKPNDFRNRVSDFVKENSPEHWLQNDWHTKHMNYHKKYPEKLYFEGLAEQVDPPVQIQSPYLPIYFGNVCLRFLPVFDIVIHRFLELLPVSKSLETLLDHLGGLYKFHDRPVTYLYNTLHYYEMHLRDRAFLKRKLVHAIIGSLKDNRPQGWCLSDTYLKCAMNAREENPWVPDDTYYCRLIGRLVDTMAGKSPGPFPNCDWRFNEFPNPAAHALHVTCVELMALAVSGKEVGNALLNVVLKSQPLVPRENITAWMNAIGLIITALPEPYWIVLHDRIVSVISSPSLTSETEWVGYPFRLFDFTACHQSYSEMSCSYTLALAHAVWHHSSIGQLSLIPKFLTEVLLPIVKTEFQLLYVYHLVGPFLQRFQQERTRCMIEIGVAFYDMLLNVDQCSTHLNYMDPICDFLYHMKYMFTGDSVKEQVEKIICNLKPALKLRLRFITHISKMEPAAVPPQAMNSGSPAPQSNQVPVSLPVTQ
Description: NCI-N87 cells from a gastric cancer cell line were seeded in a 100 mm cell culture dish and cultured until they reached 60-70% confluence. The cultured cells were transfected with p3Xflag-myc-CMV26-empty or p3Xflag-myc-CMV26-MED23^WT plasmids using Lipofectamine® 2000 (Invitrogen, USA). After transfection, YK1 (5 μM) was added 12 hours post-transfection, and the cells were cultured for 12 hours. A total of 750 μg of cell lysate was incubated with 20 μL of FLAG-agarose bead slurry (Sigma Aldrich, USA) on a rotator at 4 °C for 4 hours. The sample was centrifuged at 12,000 rpm for 1 minute to precipitate the beads. After removing the supernatant, the remaining beads were washed three times with 200 μL of lysis buffer (RIPA).
After removing the final supernatant, the beads were eluted by boiling with 2× sample buffer at 98 °C for 5 minutes. The immunoprecipitated proteins were loaded, separated by SDS-PAGE, and analyzed by Western blotting.

[10] = system: HER2; assay: IHC of NCI-N87 xenograft tumors, HER2; type: in vivo, mice; settings: vs control group
Description: as §1, §2

IC50 ([1]; Homo sapiens, NCI-N87, HER2-positive): 1560 ± 140 nM
Ki ([7]; 80 nM (His)6-MED23391-582, 10 nM FITC-ELF3129-145, Cheng-Prusoff, read-out: PPI inhibitory activity calculated based on Ki value): 4270 ± 250 nM
decrease in FP signals ([7]; displacement of FITC-ELF3129-145 from MED23391-582): significant decrease in FP signals
PPI inhibitory effect on MED23-IRF7 [9]: did not inhibit these PPIs
Compound: CC(=O)N1N=C(c2cccc(O)c2)CC1c1ccc(Cl)cc1 (stereo not drawn) [Compound 15, 1-[5-(4-Chlorophenyl)-3-(3-hydroxyphenyl)-4,5-dihydropyrazol-1-yl]-ethanone]
growth of NCI-N87 cells [1]: significantly inhibited the growth of NCI-N87 cells
body weight [2]: remained generally consistent
effect against TZMB resistance in clonal analysis [3]: effective against TZMB resistance
HER2 expression and downstream signaling [4]: significantly downregulated HER2 expression and downstream signaling, including phosphorylated AKT and MAPK
tumor volume / growth [5]: tumor volume was significantly reduced, and tumor growth was delayed
tumor growth and volume [6]: significant decrease in tumor growth and volume
proliferation marker Ki-67 [8]: significant decrease
HER2 levels reduction [10]: approximately 1.8 fold
